Experimental data published in patent publication US10869474B2, “Fungicidal compositions” (UNIVERSITÄT BASEL, priority 2016, dated 2020).
Converted amounts (≈) assume the structure as drawn. Read-outs that look alike come from different tables or passages of the source.

Tests used:
Phytophthora infestans = experiment: microbe, parasite or virus in culture; format: cell-based; details: complete inhibition of germination, assessed after one day, Table 2 values are means of N independent experiments; for Minimal inhibitory concentration (MIC100) against P. infestans: in vitro; for MIC: Phytophthora infestans, 24 h, read-out: Minimal inhibitory concentration (MIC100) against P. infestans, in vitro
Plasmopara viticola [1] = experiment: In vitro bioassay in 96-well plates, minimal inhibitory concentration (MIC100); format: cell-based; details: for MIC: Plasmopara viticola, read-out: Minimal inhibitory concentration (MIC100) against P. viticola
Plasmopara viticola [2] = experiment: Plant-pathogen bioassay on grapevine seedlings under semi-controlled conditions; format: in vivo; details: grapevine cv. Chasselas seedlings, n = 6, Table 5
Venturia inaequalis [3] = experiment: In vitro bioassay in 96-well plates, minimal inhibitory concentration (MIC100); format: cell-based; details: for MIC: Venturia inaequalis, 48 h, read-out: Minimal inhibitory concentration (MIC100) against V. inaequalis
Venturia inaequalis [4] = experiment: Plant-pathogen bioassay on apple seedlings under semi-controlled conditions; format: in vivo; details: apple cv. Jonagold seedlings, n = 6, Table 7
[5] = in vitro, complete inhibition of zoospore activity, assessed after 2-3 h, Table 2 values are means of N independent experiments
[6] = in vitro, complete inhibition of germination, assessed after two days, Table 2 values are means of N independent experiments

COc1cc(/C=C/COC(=O)c2ccccc2)ccc1O [CB, coniferyl benzoate]
Minimal inhibitory concentration (MIC100) against P. infestans (Phytophthora infestans): 21 mg/L (≈ 73.9 µM) | MIC (Plasmopara viticola [1]; [5]): 8 to 32 mg/L (≈ 28.1 to 113 µM) | Minimal inhibitory concentration (MIC100) against P. viticola (Plasmopara viticola [1]; [5]): 12 mg/L (≈ 42.2 µM) | Efficacy against P. viticola, mean ± SD (Plasmopara viticola [2]; pure compound 0.25 mg ml^−1): 85 ± 14% | Efficacy against P. viticola, mean ± SD (Plasmopara viticola [2]; pure compound 0.5 mg ml^−1): 77 ± 50% | Efficacy against P. viticola, mean ± SD (Plasmopara viticola [2]; pure compound 1 mg ml^−1): 99 ± 1% | Minimal inhibitory concentration (MIC100) against V. inaequalis (Venturia inaequalis [3]; [6]): 35 mg/L (≈ 123 µM) | Efficacy Mean ± SD (Venturia inaequalis [4]; CB 0.1 mg ml^−1): 4 ± 53% | Efficacy Mean ± SD (Venturia inaequalis [4]; CB 1 mg ml^−1): 69 ± 12% | Efficacy Mean ± SD (Venturia inaequalis [4]; CB 1 mg ml^−1, listed as coniferyl benzoate): 70%

O=C(/C=C/c1ccccc1)OC/C=C/c1ccc(O)cc1 [CC, p-coumaryl cinnamate]
MIC (Phytophthora infestans): 16 to 64 mg/L (≈ 57.1 to 228 µM) | Minimal inhibitory concentration (MIC100) against P. infestans (Phytophthora infestans): 25 mg/L (≈ 89.2 µM) | Minimal inhibitory concentration (MIC100) against P. viticola (Plasmopara viticola [1]; [5]): 38 mg/L (≈ 136 µM) | Efficacy against P. viticola, mean ± SD (Plasmopara viticola [2]; pure compound 0.25 mg ml^−1): 80 ± 16% | Efficacy against P. viticola, mean ± SD (Plasmopara viticola [2]; pure compound 0.5 mg ml^−1): 95 ± 6% | Efficacy against P. viticola, mean ± SD (Plasmopara viticola [2]; pure compound 1 mg ml^−1): 98 ± 1% | MIC (Venturia inaequalis [3]; [6]): 16 to 64 mg/L (≈ 57.1 to 228 µM) | Minimal inhibitory concentration (MIC100) against V. inaequalis (Venturia inaequalis [3]; [6]): 32 mg/L (≈ 114 µM)

O=C(/C=C/c1ccccc1)OCc1ccccc1 [BC, benzyl cinnamate]
MIC (Phytophthora infestans): 500 mg/L (≈ 2100 µM) | MIC (Plasmopara viticola [1]): 8 mg/L (≈ 33.6 µM) | MIC (Venturia inaequalis [3]): > 500 mg/L
